Results as given in patent publication US20230201217A1 (priority 2019, published 2023).
Several values for one entry are separate records, joined by “and”; a condition that tells them apart may be missing. Equal entries are not always repeated. Where two headings read alike, the source gives them in different places.

Legend:
[1] = test system: isolated rabbit Purkinje fibers; assay: Action potential duration in rabbit cardiac Purkinje fibers; settings: 50 μM, positive control
Protocol: The in vitro effect of 18-MC on the cardiac action potential was evaluated in isolated rabbit Purkinje fibers (FIG. 13). […] Fibers with resting potentials more negative than −80 mV and normal action potential morphology (APD90≥150 ms) were used in the study. Fibers were stimulated continuously at BCL of 1 second for at least 5 minutes. At the end of this period, baseline control APD rate dependence was measured using stimulus pulse trains consisting of approximately 50 pulses at BCL of 1 and 0.5 seconds. After returning to BCL of 1 second, 18-MC (or dl-sotalol) at the lowest concentration was applied for at least 20 minutes to allow equilibration, and the stimulus trains repeated. […] The average responses from the last five recorded action potentials from each stimulus train were analyzed for each test condition.
Electrophysiological recordings were performed with four nominal concentrations of 18-MC (0.3, 1, 3, and 10 μM) added sequentially to four preparations at two stimulus intervals (basic cycle lengths of 1 s and 0.5 s). The effects of 18-MC on action potential parameters were compared to time-matched vehicle control sequences.

[2] = Phase 1 first-in-human study, pharmacokinetics in plasma; settings: for Cmax: Average; for percentage of the total drug related material: 4 mg twice at 0 and +10 hours
Protocol: Fourteen normal, healthy volunteers were enrolled in the study. Seven volunteers were treated in the first cohort (3 placebo, 4 received a single dose of 20 mg of 18-MC) and seven in the second cohort (2 placebo, 5 received 8 mg as 4 mg doses of 18-MC administered at 0 and plus 10 hours). For Cohort A, volunteers were monitored in a hospital unit for 2 days (36 hours) days, and were followed up for safety at Days 3, 7 and 30. For Cohort B, volunteers were monitored in a hospital unit for 2 days (36 hours), and were followed up for safety at Days 3, 4, 7 and 30.
This study was designed as a randomized, double-blind, placebo-controlled, single-center Phase 1 first-in-human clinical trial. After screening, volunteers were admitted to the hospital for 36 hours. […] Study article was initiated on Day 1 and volunteers were discharged on Day 2. Cohort A were seen as outpatients on Days 3, 7 and 30. Cohort B were seen as outpatients on Days 3, 4, 7 and 30. 14 subjects were in the study, 5 male and 9 female.
For Cohort A, pharmacokinetic samples were obtained at baseline and at 0.5, 1.0, 2.0, 6.0, 12.0, 24, 36 hours, and 7 days post dose.
Samples underwent two analyses: A research assay (LG/MS/TOF) developed by MicroConstants, Inc., was used to collect the raw data. The first analysis was to quantitate 18-MG and the known metabolites M2, M4 and M5 (using standard curves included in the run). The second analysis compared the peak heights of 18-MG and all the metabolites that could be identified in terms of relative peak height (M1 through M10, and P1-P3).

[3] = molecular target: T1, rat α3β4 nicotinic acetylcholine receptor (nAChR) (Rattus norvegicus, UniProt P04757+P12392); assay: cell-based; settings: for Persistent Inhibition at 1 sec: 1 second after removal of drug; for koff: HEK293
T1 construct: expressed in transfected cells; host or cells: HEK 293 (ATCC CRL1573), transient, Lipofectamine 2000

mouse liver = assay: In vivo comet assay; settings: positive control
Protocol: The comet assay (alkaline single cell gel electrophoresis) is a microgel electrophoretic technique that detects DNA damage in individual cells. DNA damage can be expressed as DNA single strand breaks, double strand breaks, and strand breaks induced by alkali labile sites. […] For this study, the liver was selected as the tissue for evaluation, since this tissue is expected to contain high concentrations of parent drug and metabolites following oral administration.
Male mice were administered oral doses of 0 (vehicle=5% dextrose), 50, 90 and 120 mg/kg/day by gavage according to the table below. Animals in groups 1-4 were dosed on three consecutive days and euthanized 3 to 4 hours after the last dose by CO2 inhalation. A separate group of animals were dosed with methyl methanesulfonate (MMS) which served as a positive control. Immediately following euthanasia, the liver was removed and collected from each animal.
In this study, comet tail migration, % tail DNA (also known as % tail intensity) and tail moment were determined for each animal/treatment group and served as parameters of DNA damage.

[4] = both, human, plasma, po, 4 mg, cohort B, 4 mg PO at 0 and +10 hours
[5] = both, human, plasma, po, 20 mg, cohort A, 20 mg PO single dose
[6] = cohort B, 4 mg PO at 0 and +10 hours

T1 sequence (P04757 26-499): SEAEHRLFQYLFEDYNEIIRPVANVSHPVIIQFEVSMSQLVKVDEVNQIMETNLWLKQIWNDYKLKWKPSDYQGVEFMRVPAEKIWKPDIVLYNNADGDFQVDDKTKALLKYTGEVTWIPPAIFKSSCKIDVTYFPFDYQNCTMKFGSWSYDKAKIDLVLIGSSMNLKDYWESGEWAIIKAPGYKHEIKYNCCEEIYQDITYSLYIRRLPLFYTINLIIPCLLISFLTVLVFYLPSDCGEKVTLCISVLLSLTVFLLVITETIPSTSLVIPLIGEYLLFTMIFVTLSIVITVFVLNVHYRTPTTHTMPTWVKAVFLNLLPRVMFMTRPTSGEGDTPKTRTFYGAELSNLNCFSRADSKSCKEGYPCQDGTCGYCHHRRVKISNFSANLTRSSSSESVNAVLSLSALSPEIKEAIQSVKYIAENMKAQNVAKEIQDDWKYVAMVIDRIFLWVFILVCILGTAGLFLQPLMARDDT
T1 sequence (P12392 21-495): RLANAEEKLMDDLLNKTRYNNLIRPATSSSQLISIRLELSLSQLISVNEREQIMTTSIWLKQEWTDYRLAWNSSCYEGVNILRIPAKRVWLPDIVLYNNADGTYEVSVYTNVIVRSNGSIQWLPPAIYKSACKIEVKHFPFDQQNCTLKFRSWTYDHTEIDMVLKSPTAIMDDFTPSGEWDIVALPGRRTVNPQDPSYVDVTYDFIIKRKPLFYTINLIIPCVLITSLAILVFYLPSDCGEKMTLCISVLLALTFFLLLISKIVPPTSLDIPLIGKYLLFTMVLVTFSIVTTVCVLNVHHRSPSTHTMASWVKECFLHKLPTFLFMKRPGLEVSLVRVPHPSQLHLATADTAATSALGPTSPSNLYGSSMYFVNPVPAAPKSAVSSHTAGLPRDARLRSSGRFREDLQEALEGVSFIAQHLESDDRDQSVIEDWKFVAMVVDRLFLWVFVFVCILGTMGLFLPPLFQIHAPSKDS

Structure (SMILES): CC(C)NCC(O)c1ccc(NS(C)(=O)=O)cc1 (racemic) [dl-Sotalol, reference compound]
- APD60 prolongation [1]: ~40%
- APD90 prolongation [1]: ~40%

Structure (SMILES): COC(=O)C12CC3CC(CCO)C1N(C=Cc1c2[nH]c2ccccc12)C3 (stereo not drawn) [M2, methyl7-(2-hydroxyethyl)-7,8,9,10-tetrahydro-5H-6,9-methanopyrido[1′,2′:1,2]azepino[4,5-b]indole-6(6aH)-carboxylate]
- AUC ([2]; both, human, plasma, po, 4 mg): 391 ng·h/mL
- AUC(0-inf) ([2]; both, human, plasma, po, 4 mg): 420 ng·h/mL
- Tmax ([2]; both, human, plasma, po, 4 mg): 11.8 h
- half-life ([2]; both, human, plasma, po, 4 mg): 44.1 h
- Cmax [2, 4]: 11 ng/mL
- AUC ([2]; both, human, plasma, po, 20 mg): 563 ng·h/mL
- AUC(0-inf) ([2]; both, human, plasma, po, 20 mg): 678 ng·h/mL
- Tmax ([2]; both, human, plasma, po, 20 mg): 1.4 h
- half-life ([2]; both, human, plasma, po, 20 mg): 14.4 h
- Cmax [2, 5]: 41 ng/mL
- AUCall, Max ([2]; cohort A, 20 mg PO single dose): 684 ng·h/mL
- AUCall, Min ([2]; cohort A, 20 mg PO single dose): 504 ng·h/mL
- Cmax, Max ([2]; cohort A, 20 mg PO single dose): 62 ng/mL
- Cmax, Min ([2]; cohort A, 20 mg PO single dose): 27 ng/mL
- Half-Life, Max ([2]; cohort A, 20 mg PO single dose): 19.0 h
- Half-Life, Min ([2]; cohort A, 20 mg PO single dose): 11.1 h
- Tmax, Max ([2]; cohort A, 20 mg PO single dose): 2.0 h
- Tmax, Min ([2]; cohort A, 20 mg PO single dose): 0.5 h
- AUCall, Max [2, 6]: 500 ng·h/mL
- AUCall, Min [2, 6]: 287 ng·h/mL
- Cmax, Max [2, 6]: 12 ng/mL
- Cmax, Min [2, 6]: 8 ng/mL
- Half-Life, Max [2, 6]: 97.8 h
- Half-Life, Min [2, 6]: 18.7 h
- Tmax, Max [2, 6]: 12 h
- Tmax, Min [2, 6]: 11 h

Structure (SMILES): COCCC1CC2CN3C=Cc4c([nH]c5ccccc45)C(C(=O)OC)(C2)C13 (stereo not drawn) [M4, methyl7-(2-methoxyethyl)-7,8,9,10-tetrahydro-5H-6,9-methanopyrido[1′,2′:1,2]azepino[4,5-b]indole-6(6aH)-carboxylate]
- IC50 [3]: 2.6 µM
- Ipeak [3]: 23 ± 2% of ACh and 42 ± 3% of ACh
- Max Inhibition 20-30 μM [3]: 88 ± 3%
- fold less potent than the parent 18-MC HCl [3]: approximately 3.5 fold
- kon [3]: 4.5 and 4.5 ± 0.4 s−1
- reduction of peak ACh-evoked currents [3]: 68±2% and 86±2%
- Ipeak ([3]; 30 μM): 14 ± 2% of ACh
- Iss ([3]; 30 μM): 40 ± 6% of peak
- τdecay ([3]; 30 μM): 205 ± 40 ms
- Persistent Inhibition at 1 sec [3]: 21±3%
- koff [3]: 2.5 s⁻¹
- percentage of the total drug related material [2]: about 40%
- AUC ([2]; both, human, plasma, po, 4 mg): 1650 ng·h/mL
- AUC(0-inf) ([2]; both, human, plasma, po, 4 mg): 1650 ng·h/mL
- Tmax ([2]; both, human, plasma, po, 4 mg): 7.3 h
- half-life ([2]; both, human, plasma, po, 4 mg): 22.1 h
- Cmax [2, 4]: 72 ng/mL
- AUC ([2]; both, human, plasma, po, 20 mg): 2690 ng·h/mL
- AUC(0-inf) ([2]; both, human, plasma, po, 20 mg): 2800 ng·h/mL
- Tmax ([2]; both, human, plasma, po, 20 mg): 1.4 h
- half-life ([2]; both, human, plasma, po, 20 mg): 7.9 h
- Cmax [2, 5]: 347 ng/mL
- Tmax ([2]; cohort A or B, generally): ½
- AUCall, Max ([2]; cohort A, 20 mg PO single dose): 3925 ng·h/mL
- AUCall, Min ([2]; cohort A, 20 mg PO single dose): 1897 ng·h/mL
- Cmax, Max ([2]; cohort A, 20 mg PO single dose): 528 ng/mL
- Cmax, Min ([2]; cohort A, 20 mg PO single dose): 242 ng/mL
- Half-Life, Max ([2]; cohort A, 20 mg PO single dose): 9.3 h
- Half-Life, Min ([2]; cohort A, 20 mg PO single dose): 6.3 h
- Tmax, Max ([2]; cohort A, 20 mg PO single dose): 2.0 h
- Tmax, Min ([2]; cohort A, 20 mg PO single dose): 0.5 h
- AUCall, Max [2, 6]: 1941 ng·h/mL
- AUCall, Min [2, 6]: 1304 ng·h/mL
- Cmax, Average [2, 6]: 72.3 ng/mL
- Cmax, Max [2, 6]: 82 ng/mL
- Cmax, Min [2, 6]: 65 ng/mL
- Half-Life, Max [2, 6]: 34.3 h
- Half-Life, Min [2, 6]: 13.2 h
- Tmax, Max [2, 6]: 12 h
- Tmax, Min [2, 6]: 0.5 h

Structure (SMILES): COC(=O)C12CC3CC(CC(=O)O)C1N(CCc1c2[nH]c2ccccc12)C3 (stereo not drawn) [M5, 2-(6-(methoxycarbonyl)-6,6a,7,8,9,10,12,13-octahydro-5H-6,9-methanopyrido[1′,2′:1,2]azepino[4,5-b]indol-7-yl)acetic acid]
- IC50 [3]: 57 µM
- Ipeak [3]: 70 ± 4% of ACh
- Iss [3]: 62 ± 4% of peak
- Max Inhibition 20-30 μM [3]: 36 ± 5 %
- fold less potent than the parent 18-MC HCl [3]: ~76 fold
- kon [3]: 2.2 and 2.2 ± 0.4 s−1
- τdecay [3]: 554 ± 32 ms
- Persistent Inhibition at 1 sec [3]: 2±2%
- koff [3]: 6.2 s⁻¹
- AUC ([2]; both, human, plasma, po, 4 mg): 163 ng·h/mL
- AUC(0-inf) ([2]; both, human, plasma, po, 4 mg): 185 ng·h/mL
- Tmax ([2]; both, human, plasma, po, 4 mg): 2.9 h
- half-life ([2]; both, human, plasma, po, 4 mg): 46.8 h
- Cmax [2, 4]: 6 ng/mL
- AUC ([2]; both, human, plasma, po, 20 mg): 210 ng·h/mL
- AUC(0-inf) ([2]; both, human, plasma, po, 20 mg): 395 ng·h/mL
- Tmax ([2]; both, human, plasma, po, 20 mg): 0.8 h
- half-life ([2]; both, human, plasma, po, 20 mg): 29.6 h
- Cmax [2, 5]: 25 ng/mL
- Tmax ([2]; cohort A or B, generally): ½
- AUCall, Max ([2]; cohort A, 20 mg PO single dose): 359 ng·h/mL
- AUCall, Min ([2]; cohort A, 20 mg PO single dose): 105 ng·h/mL
- Cmax, Max ([2]; cohort A, 20 mg PO single dose): 38 ng/mL
- Cmax, Min ([2]; cohort A, 20 mg PO single dose): 12 ng/mL
- Half-Life, Max ([2]; cohort A, 20 mg PO single dose): 43.4 h
- Half-Life, Min ([2]; cohort A, 20 mg PO single dose): 16.2 h
- Tmax, Max ([2]; cohort A, 20 mg PO single dose): 1.0 h
- Tmax, Min ([2]; cohort A, 20 mg PO single dose): 0.5 h
- AUCall, Max [2, 6]: 208 ng·h/mL
- AUCall, Min [2, 6]: 104 ng·h/mL
- Cmax, Max [2, 6]: 9 ng/mL
- Cmax, Min [2, 6]: 3 ng/mL
- Half-Life, Max [2, 6]: 74.7 h
- Half-Life, Min [2, 6]: 19.8 h
- Tmax, Max [2, 6]: 11 h
- Tmax, Min [2, 6]: 0.5 h

Structure (SMILES): COCCC1CC2CN3C=Cc4c([nH]c5ccc(O)cc45)C(C(=O)OC)(C2)C13 (stereo not drawn) [M8, methyl 2-hydroxy-7-(2-methoxyethyl)-7,8,9,10-tetrahydro-5H-6,9-methanopyrido[1′,2′:1,2]azepino[4,5-b]indole-6(6aH)-carboxylate]
- percentage of the total drug related material [2]: less than 10%

Structure (SMILES): COS(C)(=O)=O [MMS, methyl methanesulfonate, reference compound]
- comet parameters (mouse liver): produced the expected increases

Structure (SMILES): COC(=O)C12CC3CC(CCO[C@@H]4O[C@H](C(=O)O)[C@@H](O)[C@H](O)[C@H]4O)C1N(C=Cc1c2[nH]c2ccccc12)C3 (stereo partly drawn) [P10, (2S,3S,4S,5R,6R)-3,4,5-trihydroxy-6-(2-(6-(methoxycarbonyl)-6,6a,7,8,9,10-hexahydro-5H-6,9-methanopyrido[1′,2′:1,2]azepino[4,5-b]indol-7-yl)ethoxy)tetrahydro-2H-pyran-2-carboxylic acid]
- percentage of the total drug related material [2]: greater than 10%
- Tmax ([2]; both, human, plasma, oral, 4 mg): 6 to 10 h
